What was measured:
[1] = target: T1, Hordeum HPPD (SEQ ID NO:2) (Hordeum vulgare, UniProt O48604, A164G/R146V/R147D/R148G); test: HPPD activity assay, in vitro characterization; type: biochemical
T1 construct: subcloned into a modified pET24D (Novagen) expression vector resulting in N-terminally His-tagged expression constructs; His (N); made in house; host or cells: E. coli BL21 (DE3)
Description: (§1) HPPD produces homogentisic acid and CO2 from 4-hydroxyphenylpyruvate (4-HPP) and O2. The activity assay for HPPD is based on the analysis of homogentisic acid by reversed phase HPLC.
(§2) The assay mixture can contain 150 mM potassium phosphate buffer pH 7.0, 50 mM L-ascorbic acid, 100 μM Catalase (Sigma-Aldrich), 1 μM FeSO4 and 0.2 units of purified HPPD enzyme in a total volume of 505 μl. 1 unit is defined as the amount of enzyme that is required to produce 1 nmol of HGA per minute at 20° C.
(§3) After a preincubation of 30 min the reaction is started by adding 4-HPP to a final concentration of 0.05 mM. The reaction is allowed to proceed for 45 min at room temperature. The reaction is stopped by the addition of 50 μl of 4.5 M phosphoric acid. The sample is filtered using a […] pore size PVDF filtration device.
(§4) 5 μl of the cleared sample is analyzed on an UPLC HSS T3 column (particle size 1.8 μm, dimensions 2,1×50 mm; Waters) by isocratic elution using 90% 20 mM NaH2PO4 pH 2.2, 10% methanol (v/v).
(§5) HGA is detected electrochemically at 750 mV (mode: DC; polarity: positive) and quantified by integrating peak areas (Empower software; Waters).
(§6) Inhibitors are dissolved in DMSO (dimethylsulfoxide) to a concentration of 0.5 mM. From this stock solution serial five-fold dilutions are prepared in DMSO, which are used in the assay. The respective inhibitor solution accounts for 1% of the assay volume. […] Activities are normalized by setting the uninhibited enzyme activity to 100%. IC50 values are calculated using non-linear regression.
(§7) Using methods which are described in the above examples or well known in the art, purified, recombinant wildtype HPPD enzymes are characterized with respect to their kinetic properties and sensitivity towards HPPD inhibiting herbicides. Apparent michaelis constants (Km) and maximal reaction velocities (Vmax) are calculated by non-linear regression with the software GraphPad Prism 5 (GraphPad Software, La Jolla, USA) using a substrate inhibition model. […] Weighted means (by standard error) of Km and IC50 values are calculated from at least three independent experiments. […] To assess the potential performance of a herbicide tolerance trait a tolerance index (TI) is calculated using the following formula: […]

[2] = tested on: transgenic Arabidopsis plants; test: Greenhouse testing of transgenic Arabidopsis plants (T2), herbicide spray test; type: in vivo, Arabidopsis thaliana; settings: for Injury evaluation, scale 0-100%: Arabidopsis
Description: Transgenic plants expressing heterologous HPPD or HST enzymes are tested for tolerance against HPPD-inhibiting herbicides in greenhouse experiments.
For post emergence treatment, the test plants are first grown to a height of 3 to 15 cm, depending on the plant habit, and only then treated with the herbicides. For this purpose, the test plants are either sown directly and grown in the same containers, or they are first grown separately and transplanted into the test containers a few days prior to treatment. For testing of T0 plants, cuttings can be used. In the case of soybean plants, an optimal shoot for cutting is about 7.5 to 10 cm tall, with at least two nodes present. Each cutting is taken from the original transformant (mother plant) and dipped into rooting hormone powder (indole-3-butyric acid, IBA). The cutting is then placed in oasis wedges inside a bio-dome. Wild type cuttings are also taken simultaneously to serve as controls. The cuttings are kept in the bio-dome for 5-7 days and then transplanted to pots and then acclimated in the growth chamber for two more days. Subsequently, the cuttings are transferred to the greenhouse, acclimated for approximately 4 days, and then subjected to spray tests as indicated.
Additionally, T1 and T2 transgenic Arabidopsis plants can be tested for improved tolerance to HPPD-inhibiting herbicides in a greenhouse studies. Herbicide injury scoring is done 2-3 weeks after treatment and is rated on a scale of 0 to 100%, 0% being no injury and 100% being complete death.

Arabidopsis HPPD = target: T2, Arabidopsis HPPD (Arabidopsis thaliana, UniProt P93836); test: HPPD activity assay (homogentisic acid by HPLC), in vitro characterization; type: biochemical
T2 construct: His6 (N); made in house; host or cells: E. coli BL21 (DE3)
T2 sequence (P93836 1-445): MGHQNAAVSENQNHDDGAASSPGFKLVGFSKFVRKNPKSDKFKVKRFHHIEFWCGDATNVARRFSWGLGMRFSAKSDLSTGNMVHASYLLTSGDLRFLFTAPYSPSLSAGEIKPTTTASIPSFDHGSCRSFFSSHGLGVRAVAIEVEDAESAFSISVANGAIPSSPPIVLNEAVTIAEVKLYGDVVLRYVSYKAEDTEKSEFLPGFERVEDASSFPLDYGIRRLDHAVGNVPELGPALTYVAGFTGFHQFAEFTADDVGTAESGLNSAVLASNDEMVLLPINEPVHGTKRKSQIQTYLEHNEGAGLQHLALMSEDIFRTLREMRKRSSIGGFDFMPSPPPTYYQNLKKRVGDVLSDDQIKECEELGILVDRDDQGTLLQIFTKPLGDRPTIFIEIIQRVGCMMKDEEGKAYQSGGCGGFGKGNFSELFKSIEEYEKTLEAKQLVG
Description: as §1, §2, §3, §4, §5, §6, §7

T1 sequence (O48604 whole entry R146V/R147D/R148G/A164G): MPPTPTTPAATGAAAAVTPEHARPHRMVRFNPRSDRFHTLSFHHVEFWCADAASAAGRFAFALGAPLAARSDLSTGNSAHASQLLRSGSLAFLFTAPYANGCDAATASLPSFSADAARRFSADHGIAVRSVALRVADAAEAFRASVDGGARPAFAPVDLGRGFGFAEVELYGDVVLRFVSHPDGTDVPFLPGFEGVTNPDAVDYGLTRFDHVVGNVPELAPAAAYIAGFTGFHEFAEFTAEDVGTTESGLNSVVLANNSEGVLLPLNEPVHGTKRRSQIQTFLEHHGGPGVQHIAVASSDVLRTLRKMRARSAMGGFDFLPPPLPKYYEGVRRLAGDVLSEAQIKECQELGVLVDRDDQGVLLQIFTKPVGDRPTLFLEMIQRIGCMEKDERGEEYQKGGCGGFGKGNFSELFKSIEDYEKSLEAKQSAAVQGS

CSc1c(Cl)cc(F)c(C(=O)Nc2nnnn2C)c1Cl [Inhibitor 2, 2,4-dichloro-6-fluoro-3-methylsulfanyl-N-(1-methyltetrazol-5-yl)benzamide]
Ki [1]: 11 nM
tolerance factor ([2]; Arabidopsis HvL320H, P321A, highest rate active ingredient applied): outstanding tolerance factor
tolerance compared to untransformed wild-type control ([2]; Arabidopsis expressing Rhodococcus HPPD (SEQ ID NO:46), highest concentration): 2 fold
Injury evaluation, scale 0-100% ([2]; transgene AtF381I, 3.125 g/ha, two weeks): 20%
Injury evaluation, scale 0-100% ([2]; transgene AtF381I, 6.25 g/ha, two weeks): 25%
Injury evaluation, scale 0-100% ([2]; transgene AtF381I, 12.5 g/ha, two weeks): 40%
Injury evaluation, scale 0-100% ([2]; transgene AtM335H, P336A, E363Q, 1.56 g/ha, two weeks): 0%
Injury evaluation, scale 0-100% ([2]; transgene AtM335H, P336A, E363Q, 3.125 g/ha, two weeks): 7%
Injury evaluation, scale 0-100% ([2]; transgene AtM335H, P336A, E363Q, 6.25 g/ha, two weeks): 7%
Injury evaluation, scale 0-100% ([2]; transgene AtM335H, P336A, E363Q, 12.5 g/ha, two weeks): 47%
Injury evaluation, scale 0-100% ([2]; transgene HvL320H, P321A, 1.56 g/ha, two weeks): 0%
Injury evaluation, scale 0-100% ([2]; transgene HvL320H, P321A, 3.125 g/ha, two weeks): 5%
Injury evaluation, scale 0-100% ([2]; transgene HvL320H, P321A, 6.25 g/ha, two weeks): 7%
Injury evaluation, scale 0-100% ([2]; transgene HvL320H, P321A, 12.5 g/ha, two weeks): 8%
Injury evaluation, scale 0-100% ([2]; transgene HvL320H, 1.56 g/ha, two weeks): 0%
Injury evaluation, scale 0-100% ([2]; transgene HvL320H, 3.125 g/ha, two weeks): 12%
Injury evaluation, scale 0-100% ([2]; transgene HvL320H, 6.25 g/ha, two weeks): 18%
Injury evaluation, scale 0-100% ([2]; transgene HvL320H, 12.5 g/ha, two weeks): 33%
Injury evaluation, scale 0-100% ([2]; transgene None, 1.56 g/ha, two weeks after treatment): 86%
Injury evaluation, scale 0-100% ([2]; transgene None, 3.125 g/ha, two weeks after treatment): 87%
Injury evaluation, scale 0-100% ([2]; transgene None, 6.25 g/ha, two weeks after treatment): 98%
Injury evaluation, scale 0-100% ([2]; transgene None, 12.5 g/ha, two weeks after treatment): 94%
Injury evaluation, scale 0-100% ([2]; transgene RjHPPD, 1.56 g/ha, two weeks): 2%
Injury evaluation, scale 0-100% ([2]; transgene RjHPPD, 3.125 g/ha, two weeks): 12%
Injury evaluation, scale 0-100% ([2]; transgene RjHPPD, 6.25 g/ha, two weeks): 13%
Injury evaluation, scale 0-100% ([2]; transgene RjHPPD, 12.5 g/ha, two weeks): 46%
Ki (Arabidopsis HPPD): 20 nM

O=C(O)C(=O)Cc1ccc(O)cc1 [Inhibitor 4-HPP, 4-hydroxyphenylpyruvate, reference compound]
Km ([1]; Hordeum HPPD, apparent michaelis constant, read-out: Km (4-HPP)): 26 µM
kcat ([1]; Hordeum HPPD, turnover number, substrate 4-HPP): 11.5 s⁻¹
Km (Arabidopsis HPPD; Arabidopsis HPPD, apparent michaelis constant, read-out: Km (4-HPP)): 13 µM
kcat (Arabidopsis HPPD; Arabidopsis HPPD, turnover number, substrate 4-HPP): 12.9 s⁻¹
